Measured values published in ChEMBL document CHEMBL1201862, “PubChem BioAssay data set” (2004).
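Cultured in 96-well plates, cells were exposed to test compound for 48 hours across five concentrations. Here, GI50 denotes the concentration required for 50% inhibition of growth.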 Active and inactive are the calls of the source. No stated cut-off is given here; in the data, active = GI50 up to about 1.1 µM and inactive = higher.

Key:
Assay in all cases: NCI-60 cell line screen, 48 h
IGROV-1 = system: IGROV-1
NCI-H23 = system: NCI-H23
HCC 2998 = system: HCC 2998
OVCAR-5 = system: OVCAR-5
NCI-H226 = system: NCI-H226
TK-10 = system: TK-10
SK-MEL-2 = system: SK-MEL-2
SR = system: SR
OVCAR-8 = system: OVCAR-8
MOLT-4 = system: MOLT-4
T47D = system: T47D
A498 = system: A498
NCI/ADR-RES = system: NCI/ADR-RES
RPMI-8226 = system: RPMI-8226
PC-3 = system: PC-3
UACC-257 = system: UACC-257
786-0 = system: 786-0
HCT-116 = system: HCT-116
CCRF-CEM = system: CCRF-CEM
OVCAR-4 = system: OVCAR-4
UO-31 = system: UO-31
DU-145 = system: DU-145
CAKI-1 = system: CAKI-1
COLO 205 = system: COLO 205
RXF 393 = system: RXF 393
Malme-3M = system: Malme-3M
SK-OV-3 = system: SK-OV-3
HOP-62 = system: HOP-62
HL-60 = system: HL-60
UACC-62 = system: UACC-62
KM12 = system: KM12
ACHN = system: ACHN
SN12C = system: SN12C
SNB-75 = system: SNB-75
MDA-N = system: MDA-N
NCI-H460 = system: NCI-H460
U-251 = system: U-251
A549 = system: A549
BT-549 = system: BT-549
Hs-578T = system: Hs-578T
EKVX = system: EKVX
OVCAR-3 = system: OVCAR-3
MDA-MB-435 = system: MDA-MB-435
SF-539 = system: SF-539
MDA-MB-231 = system: MDA-MB-231
MCF7 = system: MCF7
M14 = system: M14
HCT-15 = system: HCT-15
HT-29 = system: HT-29
K562 = system: K562
SNB-19 = system: SNB-19
NCI-H522 = system: NCI-H522
SF-295 = system: SF-295
SK-MEL-5 = system: SK-MEL-5
SF-268 = system: SF-268
SW-620 = system: SW-620
LOX IMVI = system: LOX IMVI
SK-MEL-28 = system: SK-MEL-28

## Cc1cc(N(CCC#N)CCC#N)ccc1C(/N=N/c1ccccc1)=N\NC(=O)c1cc(Cl)ccc1O
IGROV-1
  GI50: 26.2 µM (inactive)
NCI-H23
  GI50: 13.1 µM (inactive)
HCC 2998
  GI50: 15.8 µM (inactive)
OVCAR-5
  GI50: > 10 µM (inactive)
NCI-H226
  GI50: 20.5 µM (inactive)
TK-10
  GI50: 14.9 µM (inactive)
SK-MEL-2
  GI50: 32.4 µM (inactive)
SR
  GI50: 13.5 µM (inactive)
OVCAR-8
  GI50: 21.5 µM (inactive)
MOLT-4
  GI50: 39 µM (inactive)
T47D
  GI50: 11.4 µM (inactive)
A498
  GI50: 59.2 µM (inactive)
NCI/ADR-RES
  GI50: 20.1 µM (inactive)
RPMI-8226
  GI50: 64.7 µM (inactive)
PC-3
  GI50: 23.5 µM (inactive)
UACC-257
  GI50: 18.6 µM (inactive)
786-0
  GI50: 23.9 µM (inactive)
HCT-116
  GI50: 15.7 µM (inactive)
CCRF-CEM
  GI50: 16.6 µM (inactive)
OVCAR-4
  GI50: 20.7 µM (inactive)
UO-31
  GI50: 14.8 µM (inactive)
DU-145
  GI50: 27.5 µM (inactive)
CAKI-1
  GI50: 46.8 µM (inactive)
COLO 205
  GI50: 19.7 µM (inactive)
RXF 393
  GI50: 23.3 µM (inactive)
Malme-3M
  GI50: 27.9 µM (inactive)
SK-OV-3
  GI50: 71.4 µM (inactive)
HOP-62
  GI50: 41.8 µM (inactive)
HL-60
  GI50: 37.9 µM (inactive)
UACC-62
  GI50: 7.71 µM (inactive)
KM12
  GI50: 26.1 µM (inactive)
ACHN
  GI50: 15.8 µM (inactive)
SN12C
  GI50: 26.5 µM (inactive)
SNB-75
  GI50: 77.6 µM (inactive)
MDA-N
  GI50: 32.6 µM (inactive)
NCI-H460
  GI50: 24.5 µM (inactive)
U-251
  GI50: 33.1 µM (inactive)
A549
  GI50: 29.4 µM (inactive)
BT-549
  GI50: 18.2 µM (inactive)
Hs-578T
  GI50: 23.8 µM (inactive)
EKVX
  GI50: 30.5 µM (inactive)
OVCAR-3
  GI50: 18 µM (inactive)
MDA-MB-435
  GI50: 36.4 µM (inactive)
SF-539
  GI50: 20.5 µM (inactive)
MDA-MB-231
  GI50: 27.1 µM (inactive)
MCF7
  GI50: 11.7 µM (inactive)
M14
  GI50: 26.4 µM (inactive)
HCT-15
  GI50: 18.4 µM
HT-29
  GI50: 15.5 µM (inactive)
K562
  GI50: 22.4 µM (inactive)
SNB-19
  GI50: 49 µM (inactive)
NCI-H522
  GI50: 13.6 µM (inactive)
SF-295
  GI50: 18.5 µM (inactive)
SK-MEL-5
  GI50: 21.5 µM (inactive)
SF-268
  GI50: 30.1 µM (inactive)

## COC1=C(OC)C(=O)C(Cc2c(C)nc3sc(C)cn23)=C(C)C1=O
IGROV-1
  GI50: 17.4 µM (inactive)
NCI-H23
  GI50: 15 µM (inactive)
HCC 2998
  GI50: 29 µM (inactive)
OVCAR-5
  GI50: 22.2 µM (inactive)
TK-10
  GI50: 18.5 µM (inactive)
SK-MEL-2
  GI50: 17.4 µM (inactive)
SW-620
  GI50: 25.5 µM (inactive)
SR
  GI50: 17.9 µM (inactive)
OVCAR-8
  GI50: 17.1 µM (inactive)
MOLT-4
  GI50: 1.7 µM (inactive)
T47D
  GI50: 34.1 µM (inactive)
A498
  GI50: 33 µM (inactive)
NCI/ADR-RES
  GI50: 15.9 µM (inactive)
RPMI-8226
  GI50: 16.3 µM (inactive)
PC-3
  GI50: 23.4 µM (inactive)
UACC-257
  GI50: 12.8 µM (inactive)
786-0
  GI50: 19.7 µM (inactive)
HCT-116
  GI50: 19.8 µM (inactive)
CCRF-CEM
  GI50: 7.13 µM (inactive)
OVCAR-4
  GI50: 10.9 µM (inactive)
UO-31
  GI50: 16.8 µM (inactive)
DU-145
  GI50: 20.2 µM (inactive)
CAKI-1
  GI50: 20.4 µM (inactive)
LOX IMVI
  GI50: 17.4 µM (inactive)
COLO 205
  GI50: 19.3 µM (inactive)
RXF 393
  GI50: 20.9 µM (inactive)
Malme-3M
  GI50: 14.9 µM (inactive)
SK-OV-3
  GI50: 22 µM (inactive)
SK-MEL-28
  GI50: 16.1 µM (inactive)
HOP-62
  GI50: 18.5 µM (inactive)
HL-60
  GI50: 11.6 µM (inactive)
UACC-62
  GI50: 14 µM (inactive)
KM12
  GI50: 26.3 µM (inactive)
ACHN
  GI50: 15.1 µM (inactive)
SN12C
  GI50: 16.9 µM (inactive)
MDA-N
  GI50: 18 µM (inactive)
NCI-H460
  GI50: 20 µM (inactive)
U-251
  GI50: 19.8 µM (inactive)
A549
  GI50: 19.5 µM (inactive)
BT-549
  GI50: 16.9 µM (inactive)
Hs-578T
  GI50: 23.9 µM (inactive)
EKVX
  GI50: 16.7 µM (inactive)
OVCAR-3
  GI50: 17.5 µM (inactive)
MDA-MB-435
  GI50: 17.9 µM (inactive)
SF-539
  GI50: 17.4 µM (inactive)
MDA-MB-231
  GI50: 14.7 µM (inactive)
MCF7
  GI50: 20.5 µM (inactive)
M14
  GI50: 17 µM (inactive)
HCT-15
  GI50: 26.1 µM
HT-29
  GI50: 20.2 µM (inactive)
K562
  GI50: 16.9 µM (inactive)
SNB-19
  GI50: 19 µM (inactive)
NCI-H522
  GI50: 17.4 µM (inactive)
SF-295
  GI50: 19.1 µM (inactive)
SK-MEL-5
  GI50: 15.2 µM (inactive)
SF-268
  GI50: 17.7 µM (inactive)

## CC1CC(NC2CCCCC2)=Nc2ccccc2N1Cc1ccccc1 (centres undefined)
IGROV-1
  GI50: 1.91 µM (inactive)
NCI-H23
  GI50: 7.33 µM (inactive)
HCC 2998
  GI50: 2.31 µM (inactive)
OVCAR-5
  GI50: 5.09 µM (inactive)
NCI-H226
  GI50: 12.7 µM (inactive)
TK-10
  GI50: 12.3 µM (inactive)
SK-MEL-2
  GI50: 11.2 µM (inactive)
SW-620
  GI50: 6.37 µM (inactive)
SR
  GI50: 2.64 µM (inactive)
OVCAR-8
  GI50: 6.59 µM (inactive)
MOLT-4
  GI50: 3.55 µM (inactive)
T47D
  GI50: 4.18 µM (inactive)
A498
  GI50: 2.05 µM (inactive)
NCI/ADR-RES
  GI50: 5.85 µM (inactive)
RPMI-8226
  GI50: 2.6 µM (inactive)
PC-3
  GI50: 5.41 µM (inactive)
UACC-257
  GI50: 3.45 µM (inactive)
786-0
  GI50: 7.71 µM (inactive)
HCT-116
  GI50: 4.71 µM (inactive)
CCRF-CEM
  GI50: 4.13 µM (inactive)
OVCAR-4
  GI50: 5.78 µM (inactive)
UO-31
  GI50: 4.66 µM (inactive)
DU-145
  GI50: 4.66 µM (inactive)
CAKI-1
  GI50: 5.46 µM (inactive)
LOX IMVI
  GI50: 2.11 µM (inactive)
COLO 205
  GI50: 4.35 µM (inactive)
RXF 393
  GI50: 2.36 µM (inactive)
Malme-3M
  GI50: 1.49 µM (inactive)
SK-OV-3
  GI50: 11.2 µM (inactive)
SK-MEL-28
  GI50: 4.38 µM (inactive)
HOP-62
  GI50: 7.03 µM (inactive)
HL-60
  GI50: 4.51 µM (inactive)
UACC-62
  GI50: 1.79 µM (inactive)
KM12
  GI50: 4.75 µM (inactive)
ACHN
  GI50: 10.4 µM (inactive)
SN12C
  GI50: 7.85 µM (inactive)
SNB-75
  GI50: 0.417 µM (active)
MDA-N
  GI50: 3.69 µM (inactive)
NCI-H460
  GI50: 3.37 µM (inactive)
U-251
  GI50: 7.16 µM (inactive)
A549
  GI50: 4.43 µM (inactive)
BT-549
  GI50: 6.05 µM (inactive)
Hs-578T
  GI50: 3.95 µM (inactive)
EKVX
  GI50: 8.22 µM (inactive)
OVCAR-3
  GI50: 6.92 µM (inactive)
MDA-MB-435
  GI50: 3.38 µM (inactive)
SF-539
  GI50: 5.62 µM (inactive)
MDA-MB-231
  GI50: 4.51 µM (inactive)
MCF7
  GI50: 3.66 µM (inactive)
M14
  GI50: 2.04 µM (inactive)
HCT-15
  GI50: 5.33 µM
HT-29
  GI50: 2.82 µM (inactive)
K562
  GI50: 1.73 µM (inactive)
SNB-19
  GI50: 11.3 µM (inactive)
NCI-H522
  GI50: 3.03 µM (inactive)
SF-295
  GI50: 6.03 µM (inactive)
SK-MEL-5
  GI50: 2.43 µM (inactive)
SF-268
  GI50: 4.06 µM (inactive)
